Measured values published in US20130125265A1, “AGROBACTERIUM-MEDIATED METHOD FOR PRODUCING TRANSFORMED PLANT” (JAPAN TOBACCO INC., priority 2008, published 2013).

Tested on: immature maize embryos (variety: A188)
Assay: Effect of auxin in coculture medium on regeneration and GUS gene expression in whole plants regenerated without selection from Agrobacterium-inoculated immature maize embryos
Assay type: cell-based
Settings: for Number of immature embryos found to regenerate into whole plants on LSZ medium / Number of immature embryos with at least one leaf piece showing GUS gene expression / Number of immature embryos whose leaf pieces were all GUS-negative: auxin 6.8 μM in coculture medium, 24 immature embryos per auxin; for Number of immature embryos found to regenerate into whole plants on LSZ medium: Agrobacterium LBA4404 (pSB124); for Percentage of regenerated plants showing expression of the transgene (in words) / Efficiency of regeneration into whole plants (in words): comparison of auxins in coculture medium
Protocol: Maize (variety: A188) immature embryos (1.0 to 1.5 mm in size) at 7 to 14 days after pollination were aseptically collected and washed once with LS-inf liquid medium, followed by pretreatment (thermal treatment at 46° C. for 3 minutes) to increase gene transfer efficiency for transformation enhancement. In LS-inf liquid medium containing 100 μM acetosyringone, Agrobacterium strain LBA4404 (pSB124) (Komari et al., 1996) was suspended to prepare an inoculum.
The thermally-treated immature embryos were mixed with the inoculum, vortexed for 30 seconds, and then allowed to stand for 5 minutes at room temperature. The Agrobacterium-inoculated immature embryos (24 in total) were placed, with their scutella facing up, onto a coculture medium containing dicamba (3,6-dichloro-o-anisic acid) or picloram (4-amino-3,5,6-trichloropicolinic acid) at a concentration of 6.8 μM in LS-AS medium (Ishida et al. 1996; solidified with 8 g/l agarose) which had been prepared to exclude 2,4-D (2,4-dichlorophenoxyacetic acid) and contain 5 μM AgNO3 and 5 μM CuSO4.
On the other hand, LS-AS medium containing 5 μM AgNO3 and 5 μM CuSO4 was supplemented with 1.5 mg/l (6.8 μM) 2,4-D as an auxin member and also used for testing, 24 immature embryos were placed onto this medium.
The immature embryos cultured in the dark at 25° C. for 7 days were placed onto LSZ medium (Ishida et ai., 1996) containing 10 μM CuSO4, and then cultured in the light at 25° C. for about 2 weeks. Leaves of the regenerated whole plants were partially excised and immersed in 0.1 M phosphate buffer (pH 6.8) containing 0.1% Triton X-100 and then allowed to stand at 37° C. for 1 hour. The phosphate buffer was removed and replaced by another phosphate buffer containing 1.0 mM 5-bromo-4-chloro-3-indolyl-β-D-glucuronic acid (X-gluc) and 20% methanol. After treatment at 37° C. for 24 hours, GUS gene expression was analyzed.

| Compound | Number of immature embryos found to regenerate into whole plants on LSZ medium (no selection) | Number of immature embryos with at least one leaf piece showing GUS gene expression (no selection) | Number of immature embryos that did not regenerate into plants on LSZ medium (auxin 1.5 mg/l (6.8 μM) in coculture medium, 24 immature embryos, no selection) | Percentage of regenerated plants showing expression of the transgene (in words) | Number of immature embryos whose leaf pieces were all GUS-negative (no selection) | Efficiency of regeneration into whole plants (in words) |
| --- | --- | --- | --- | --- | --- | --- |
| O=C(O)COc1ccc(Cl)cc1Cl [2,4-D, 2,4-dichlorophenoxyacetic acid] | 21 | 4 | 3 | slightly lower |  |  |
| Nc1c(Cl)c(Cl)nc(C(=O)O)c1Cl [picloram, 4-amino-3,5,6-trichloropicolinic acid] | All of the immature embryos | 9 |  | increased percentage | 15 | higher efficiency |
| COc1c(Cl)ccc(Cl)c1C(=O)O [dicamba, 3,6-dichloro-o-anisic acid] | 24 | 11 |  | increased percentage | 13 | higher efficiency |
